Test results from patent US4175081A, “5-Substituted thiadiazole ureas” (priority 1977, dated 1979).

Columns and labels:
Crabgrass (CG) [1] = assay: Pre-emergence herbicide test; type: in vivo, Digitaria sanquinalis; conditions: Digitaria sanguinalis, pre-emergence, 336 h; 8 lb/acre; two weeks after treatment
Summary of the method: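 Crabgrass (Digitaria sanquinalis) was surface seeded in 3' plastic pots of potting soil, covered with screened soil, and watered by sub-irrigation in greenhouse trays. Pots were seeded one day before spraying in a hood with a moving belt and fixed nozzle. Plants stayed in the greenhouse on sub-irrigation, and pre-emergence control was rated visually two weeks after treatment.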

Johnson grass (JG) [2] = assay: Pre-emergence herbicide test; type: in vivo, Sorgum helepense; conditions: Sorghum halepense, 336 h, 8 lb/acre, two weeks after treatment
Summary of the method: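 Visual injury or control rating two weeks post-treatment, after pre-emergence spray of 8 or 4 lbs active per acre (38 gal/acre) onto pots sown the previous day. Greenhouse watering by sub-irrigation only.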

Barnyard grass (BG) [3] = assay: Pre-emergence herbicide test; type: in vivo; conditions: Echinochloa crus-galli, 336 h, 8 lb/acre, two weeks after treatment
Summary of the method: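 Greenhouse pre-emergence spray test: pots seeded one day before treatment received compound at rates of 8 or 4 lb/acre (38 gal/acre). Visual injury/control scores for Echinochloa crus-galli taken at two weeks, with watering by sub-irrigation only.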

Amaranth pigweed (PW) [4] = assay: Pre-emergence herbicide test; type: in vivo, Amaranthus retroflexus; conditions: 336 h, 8 lb/acre, two weeks after treatment
Summary of the method: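 Visual injury or control ratings were made at two weeks on pre-emergence pots, sub-irrigated in the greenhouse. Seeds were sown a day before a hood spray delivering 8 lbs/acre (or 4 lbs/acre) of compound in 38 gallons per acre.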

Turnip (TP) [5] = assay: Pre-emergence herbicide test; type: in vivo, Brassica sp.; conditions: Brassica rapa, pre-emergence, 336 h; 8 lb/acre; two weeks after treatment
Summary of the method: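 In this pre-emergence greenhouse test, turnip was seeded on the surface of potting soil in 3' plastic pots, lightly covered with screened soil, and watered from below. One day later the pots were sprayed in a belt-fed spray hood. Watering continued only by sub-irrigation, and percent control was visually scored two weeks after treatment.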

Cotton (CT) [6] = assay: Pre-emergence herbicide test; type: in vivo, Gossypium hirsutum var. DPL smooth leaf; conditions: Gossypium hirsutum, 336 h, 8 lb/acre, two weeks after treatment
Summary of the method: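 Visual injury/control ratings were taken at two weeks post-spray. Pots seeded a day earlier received compound pre-emergence at 8 lbs/acre, or 4 lbs/acre, in a 38 gallon/acre spray volume, and were then held in the greenhouse, watered only from below.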

Corn (CN) [7] = assay: Pre-emergence herbicide test; type: in vivo; conditions: Zea mays, 336 h, 8 lb/acre, two weeks after treatment
Summary of the method: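 Visual injury/control ratings were made 2 weeks post-spray on corn pots seeded (4 seeds, seed-diameter depth) the day before treatment. Application was a belt-hood spray of 38 gal/acre delivering 8 lbs active per acre, with a 4 lbs/acre rate also formulated. Watering was by sub-irrigation throughout.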

Bean (BN) [8] = assay: Pre-emergence herbicide test; type: in vivo, Phaseolus vulgaris var. Black Valentine; conditions: Phaseolus vulgaris, 336 h, 8 lb/acre, two weeks after treatment
Summary of the method: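 Visual injury/control ratings were taken two weeks post-spray on sub-irrigated Phaseolus vulgaris var. Black Valentine. Pots were sown a day before treatment. Pre-emergence spray delivered 8 lbs actual compound per acre (or 4 lbs/acre) at 38 gallons per acre.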

Crabgrass (CG) [9] = assay: Post-emergence herbicide test; type: in vivo, Digitaria sanquinalis; conditions: Digitaria sanguinalis, post-emergence, 336 h, two weeks after treatment; for pest or weed control at 8966.8 g/ha: 8 lb/acre
Summary of the method: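 Crabgrass (Digitaria sanquinalis) was surface seeded individually in 3' plastic pots of potting soil, covered with screened soil, and watered by sub-irrigation in greenhouse trays. Planting was staggered so seedlings reached the target stage together. Post-emergence sprays were applied in a hood with a removable belt and fixed nozzle, and control was visually rated two weeks after treatment.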

[10] = tested on: Yellow foxtail grass (YF); assay: Post-emergence herbicide test; type: in vivo, Setaria glauca; conditions: Setaria, 336 h, two weeks after treatment; for pest or weed control at 8966.8 g/ha: 8 lb/acre
Experimental: (§1) Yellow foxtail grass (YF)--Setaria glauca
(§2) All crop and weed species were planted individually in 3' plastic pots containing potting soil. Four seeds each of corn, cotton, and snapbeans were seeded to a depth equal to the diameter of the seed. All other species were surface seeded and sprinkled with screened soil in an amount sufficient to cover the seed. Immediately after planting, all pots were watered by sub-irrigation in greenhouse trays. Pots for the pre-emergence phase were seeded one day before treatment.
Planting dates for the post-emergence phase were varied so that all seedlings would reach the desired stage of development simultaneously. The proper stage of seedling development for treatment in the post-emergence phase is as follows:
(§3) Compounds were tested at rates of application equivalent to 8 lbs. of actual compound per acre in a spray volume of 38 gallons per acre. Spray hood constants required to deliver the above volume are as follows:
(§4) Formulations for spray applications were prepared in 50 ml volumes with the following three components:
(§5) Formulations for the 4 lbs/acre rate were prepared by adjusting the amount of active ingredient accordingly.
(§6) Spray applications were made in a hood containing a removable belt and fixed spray nozzle. For passage through the spray hood, one pot of each specie (pre-emergence phase) was placed on the rear half of the flat. Treatments were removed to the greenhouse after spraying. Watering during the observation period was done only by sub-irrigation.
(§7) Two weeks after treatment, pre- and post-emergence injury or control was visually rated, and the results were as shown in the following tables. Pre-emergence data are provided in TABLE III and post-emergence data are provided in TABLE IV, for compounds having the formula illustrated in TABLE I. Correspondingly, pre-emergence and post-emergence data, respectively, are set forth in TABLES V AND VI, for compounds having the formula illustrated in TABLE II.

Johnson grass (JG) [11] = assay: Post-emergence herbicide test; type: in vivo, Sorgum helepense; conditions: Sorghum halepense, 336 h, two weeks after treatment; for pest or weed control at 8966.8 g/ha: 8 lb/acre
Summary of the method: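 Visual injury or control scores taken 2 weeks after a post-emergence spray of pot-grown plants. Application was 8 lbs/acre (or 4 lbs/acre) in 38 gal/acre. Plants were held in the greenhouse with sub-irrigation only.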

Barnyard grass (BG) [12] = assay: Post-emergence herbicide test; type: in vivo; conditions: Echinochloa crus-galli, 336 h, two weeks after treatment; for pest or weed control at 8966.8 g/ha: 8 lb/acre
Summary of the method: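 Greenhouse pot-grown barnyard grass seedlings sprayed post-emergence at 8 lbs active compound per acre (some at 4 lbs/acre) in 38 gallons per acre, then sub-irrigated. Injury or control rated visually two weeks after treatment.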

Amaranth pigweed (PW) [13] = assay: Post-emergence herbicide test; type: in vivo, Amaranthus retroflexus; conditions: 336 h, two weeks after treatment; for pest or weed control at 8966.8 g/ha: 8 lb/acre
Summary of the method: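 Visual injury or control ratings were made two weeks after spraying, with greenhouse watering by sub-irrigation only. Treatment was post-emergence, when pigweed seedlings had 1 or 2 true leaves, at 8 lbs active compound per acre (4 lbs/acre formulations also made) in a 38 gallons-per-acre spray volume.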

Turnip (TP) [14] = assay: Post-emergence herbicide test; type: in vivo, Brassica sp.; conditions: Brassica rapa, post-emergence, 336 h, two weeks after treatment; for pest or weed control at 8966.8 g/ha: 8 lb/acre
Summary of the method: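 A greenhouse post-emergence herbicide test on turnip. Seeds were sown on the surface of potting soil in 3' plastic pots, lightly covered with screened soil and watered from below. Planting was timed so seedlings had 1 or 2 true leaves above the cotyledons at spraying, done in a hood with a fixed nozzle. Control or injury was scored by eye after two weeks.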

Cotton (CT) [15] = assay: Post-emergence herbicide test; type: in vivo, Gossypium hirsutum var. DPL smooth leaf; conditions: Gossypium hirsutum, post-emergence, 336 h, two weeks after treatment; for pest or weed control at 8966.8 g/ha: 8 lb/acre
Summary of the method: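 This greenhouse post-emergence test measured how well spray treatments controlled cotton. Seedlings of Gossypium hirsutum var. DPL smooth leaf, with expanded cotyledons and a first true leaf 1' in length, were sprayed with 50 ml formulations in a belt-fed spray hood. They were then returned to the greenhouse and watered only by sub-irrigation. Injury was scored visually as % control after two weeks.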

Corn (CN) [16] = assay: Post-emergence herbicide test; type: in vivo; conditions: Zea mays, 336 h, two weeks after treatment; for pest or weed control at 8966.8 g/ha: 8 lb/acre
Summary of the method: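 Greenhouse seedlings grown in potting soil and sprayed post-emergence at 8 lbs compound/acre (formulations also made for 4 lbs/acre) in 38 gallons/acre spray volume. Watering by sub-irrigation only. Injury or control rated visually two weeks after treatment.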

Bean (BN) [17] = assay: Post-emergence herbicide test; type: in vivo, Phaseolus vulgaris var. Black Valentine; conditions: Phaseolus vulgaris, post-emergence, 336 h, two weeks after treatment; for pest or weed control at 8966.8 g/ha: 8 lb/acre
Summary of the method: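 Bean seedlings (Phaseolus vulgaris var. Black Valentine) were grown in potting soil in 3' pots until the primary leaves expanded. They were then sprayed under a hood with a removable belt and fixed nozzle, using 50 ml formulations. Afterward they were returned to the greenhouse and watered only by sub-irrigation. Percent control was judged visually two weeks after treatment.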

[18] = tested on: Yellow foxtail grass (YF); assay: Pre-emergence herbicide test; type: in vivo, Setaria glauca; conditions: Setaria, 336 h, 8 lb/acre, two weeks after treatment
Experimental: as §1, §2, §3, §4, §5, §6, §7

Structure (SMILES)	pest or weed control at 8966.8 g/ha (Crabgrass (CG) [1]) [%]	pest or weed control at 8966.8 g/ha (Johnson grass (JG) [2]) [%]	pest or weed control at 8966.8 g/ha (Barnyard grass (BG) [3]) [%]	pest or weed control at 8966.8 g/ha (Amaranth pigweed (PW) [4]) [%]	pest or weed control at 8966.8 g/ha (Turnip (TP) [5]) [%]	pest or weed control at 8966.8 g/ha (Cotton (CT) [6]) [%]	pest or weed control at 8966.8 g/ha (Corn (CN) [7]) [%]	pest or weed control at 8966.8 g/ha (Bean (BN) [8]) [%]	pest or weed control at 8966.8 g/ha (Crabgrass (CG) [9]) [%]	pest or weed control at 8966.8 g/ha [10] [%]	pest or weed control at 8966.8 g/ha (Johnson grass (JG) [11]) [%]	pest or weed control at 8966.8 g/ha (Barnyard grass (BG) [12]) [%]	pest or weed control at 8966.8 g/ha (Amaranth pigweed (PW) [13]) [%]	pest or weed control at 8966.8 g/ha (Turnip (TP) [14]) [%]	pest or weed control at 8966.8 g/ha (Cotton (CT) [15]) [%]	pest or weed control at 8966.8 g/ha (Corn (CN) [16]) [%]	pest or weed control at 8966.8 g/ha (Bean (BN) [17]) [%]	pest or weed control at 8966.8 g/ha [18] [%]	further results
CCc1nnc(NC(=O)NC)s1 [Example 3, 1-Methyl-3-[5-Ethyl-2-(1,3,4-Thiadiazolyl)] Urea]	10	20	10	70	70	50	100	90	20	20	20	20	100	100	90	20	60	–	–
CCCNC(=O)Nc1nnc(C(F)(F)F)s1 [Example 10]	20	20	10	–	10	80	50	80	50	20	30	40	100	60	60	40	50	20	–
CC(C)NC(=O)Nc1nnc(C(F)(F)F)s1 [Example 11]	20	30	10	–	10	80	80	30	50	20	30	40	100	60	60	40	50	10	–
CNC(=O)Nc1nnc(C)s1 [Example 18]	10	10	20	10	50	30	30	50	20	20	20	20	40	40	50	20	50	–	–
C=C(C)CSc1nnc(NC(=O)NC)s1 [Example 49]	–	–	–	–	–	–	–	–	–	–	–	–	–	–	–	–	–	–	pest or weed control at 4483.4 g/ha (Crabgrass (CG) [9]; 4 lb/acre): 80%; pest or weed control at 4483.4 g/ha ([10]; 4 lb/acre): 40%; pest or weed control at 4483.4 g/ha (Johnson grass (JG) [11]; 4 lb/acre): 40%; pest or weed control at 4483.4 g/ha (Barnyard grass (BG) [12]; 4 lb/acre): 40%; pest or weed control at 2241.7 g/ha (Amaranth pigweed (PW) [13]; 2 lb/acre): 100%; pest or weed control at 2241.7 g/ha (Turnip (TP) [14]; 2 lb/acre): 70%; pest or weed control at 4483.4 g/ha (Turnip (TP) [14]; 4 lb/acre): 90%; pest or weed control at 4483.4 g/ha (Cotton (CT) [15]; 4 lb/acre): 100%; pest or weed control at 4483.4 g/ha (Corn (CN) [16]; 4 lb/acre): 40%; pest or weed control at 4483.4 g/ha (Bean (BN) [17]; 4 lb/acre): 50%
CNC(=O)Nc1nnc(-c2cccc(Cl)c2)s1 [Example 72]	0	0	0	–	0	80	30	100	30	30	20	40	–	40	30	0	20	–	–
